One assay addresses Cathepsin D (Homo sapiens, UniProt P07339). Kind of assay: In Vitro Enzymatic: Recombinant Cat D was expressed in CHO cells. The assay buffer for CathepsinD is 0.05 M citrate pH 3.5, 10% DMSO final, 5 mM CHAPS. The Cat D enzyme (9 nM) is pre-incubated for one hour with inhibitors, typically in about 1 uL of DMSO according to a serial dilution, is added thereto. The assays are effectively started by the addition of different FRET substrates (20 nM for Cat D) and the combination is incubated for one hour. The FRET assay is terminated with by addition of Tris buffer, which raises the pH to neutrality, and the fluorescence is determined. The FRET substrate is a peptide with commercially available fluorophore and quencher, on opposite sides of the BACE cleavage site. The Cat D substrate peptide sequence is based on sequence #1 of Table 1 from Gulnik et al. FEBS Letters v413 p 379-384 1997. Proteolytic cleavage of the FRET substrate releases quenching of fluorescence (Cat D excitation 500 nm and emission 580 nm).Alternatively, a Cat D assay may also be run according to the procedure described in the article, Characterization of new fluorgenic substrates for the rapid and sensitive assay of cathepsin E and cathepsin D, J. Biochem., 125:1137, 1999. In kind it is cell-based.

The next assay has as its target Beta-secretase 1 (Homo sapiens, UniProt P56817). Kind of assay: In Vivo Inhibition of Beta-Secretase: Several animal models, including mouse, rat, dog, and monkey, may be used to screen for inhibition of beta-secretase activity in vivo following administration of a test compound sample. Animals used in this invention can be wild type, transgenic, or gene knockout animals. For example, the Tg2576 mouse model, prepared and conducted as described in Hsiao et al., 1996, Science 274, 99-102, and other non-transgenic or gene knockout animals are useful to analyze in vivo inhibition of Amyloid beta peptide (Abeta) production in the presence of inhibitory test compounds. Generally, 2 to 18 month old Tg2576 mice, gene knockout mice or non-transgenic animals are administered test compounds formulated in vehicles, such as cyclodextran, phosphate buffers, hydroxypropyl methylcellulose or other suitable vehicles. […]. In kind it is organism-based.

SMILES strings stand for the structures.

Cathepsin D, sequence (P07339 65-162 limits assumed): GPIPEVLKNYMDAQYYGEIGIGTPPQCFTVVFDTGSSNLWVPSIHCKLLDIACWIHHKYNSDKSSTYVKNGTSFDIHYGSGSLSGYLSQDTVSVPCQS
Cathepsin D, sequence (P07339 169-412 limits assumed): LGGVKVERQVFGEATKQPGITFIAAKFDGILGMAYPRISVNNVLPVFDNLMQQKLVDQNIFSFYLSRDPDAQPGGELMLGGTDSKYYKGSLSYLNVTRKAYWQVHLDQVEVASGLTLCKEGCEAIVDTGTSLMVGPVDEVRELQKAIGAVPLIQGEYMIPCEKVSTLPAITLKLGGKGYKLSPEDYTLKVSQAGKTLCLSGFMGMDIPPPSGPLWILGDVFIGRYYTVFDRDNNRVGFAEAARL
Beta-secretase 1, sequence (P56817 whole entry): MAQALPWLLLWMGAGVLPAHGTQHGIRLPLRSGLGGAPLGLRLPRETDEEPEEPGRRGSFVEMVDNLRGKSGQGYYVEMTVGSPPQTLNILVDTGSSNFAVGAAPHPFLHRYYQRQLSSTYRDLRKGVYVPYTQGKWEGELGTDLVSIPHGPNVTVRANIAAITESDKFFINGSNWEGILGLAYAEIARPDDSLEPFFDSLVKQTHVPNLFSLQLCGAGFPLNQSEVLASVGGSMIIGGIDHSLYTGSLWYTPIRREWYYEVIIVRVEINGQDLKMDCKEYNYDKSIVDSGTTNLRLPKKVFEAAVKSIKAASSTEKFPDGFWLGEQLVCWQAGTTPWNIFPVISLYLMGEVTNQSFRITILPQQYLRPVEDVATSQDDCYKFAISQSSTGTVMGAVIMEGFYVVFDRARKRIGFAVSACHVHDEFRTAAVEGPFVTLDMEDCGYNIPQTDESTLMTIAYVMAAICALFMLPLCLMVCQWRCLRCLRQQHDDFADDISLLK

Regarding `Cc1cc(C#N)cnc1C(=O)Nc1ccc(F)c([C@]2(C)CS(=O)(=O)C3(CCC3)C(N)=N2)c1`, the IC50 was determined as 134 µM on Cathepsin D and 0.00076 µM at Beta-secretase 1.

In the case of `Cc1cc(Cl)cnc1C(=O)Nc1ccc(F)c([C@]2(C)CS(=O)(=O)C3(CCC3)C(N)=N2)c1`, the figures for the IC50 on Cathepsin D and on Beta-secretase 1 were 84.7 µM and 0.0016 µM, respectively.

These data come from ChEMBL document CHEMBL5725463, “Amino-dihydrothiazine and amino-dioxido dihydrothiazine compounds as beta-secretase antagonists and methods of use” (2017).
